Measurements taken from PubChem BioAssay AID651581 (Sanford-Burnham Center for Chemical Genomics, 2012).
Active and inactive are the calls of the source. The rule behind the calls is not given here.

Experiments:
[1] = molecular target: Hypoxia-inducible factor 1-alpha (Homo sapiens) (UniProt Q16665); assay: potency against HIF reporters across cell lines – luminescence, panel, selectivity assay for HIF-2a inhibitor project, dose response (AID 651581); details: human cell HIF reporter, HIF-1a
[2] = molecular target: Endothelial PAS domain-containing protein 1 (Homo sapiens) (UniProt Q99814); assay: as above; details: human cell HIF reporter

Sequence of Hypoxia-inducible factor 1-alpha (Homo sapiens) (Q16665 whole entry, looked up, the tested form may be a part): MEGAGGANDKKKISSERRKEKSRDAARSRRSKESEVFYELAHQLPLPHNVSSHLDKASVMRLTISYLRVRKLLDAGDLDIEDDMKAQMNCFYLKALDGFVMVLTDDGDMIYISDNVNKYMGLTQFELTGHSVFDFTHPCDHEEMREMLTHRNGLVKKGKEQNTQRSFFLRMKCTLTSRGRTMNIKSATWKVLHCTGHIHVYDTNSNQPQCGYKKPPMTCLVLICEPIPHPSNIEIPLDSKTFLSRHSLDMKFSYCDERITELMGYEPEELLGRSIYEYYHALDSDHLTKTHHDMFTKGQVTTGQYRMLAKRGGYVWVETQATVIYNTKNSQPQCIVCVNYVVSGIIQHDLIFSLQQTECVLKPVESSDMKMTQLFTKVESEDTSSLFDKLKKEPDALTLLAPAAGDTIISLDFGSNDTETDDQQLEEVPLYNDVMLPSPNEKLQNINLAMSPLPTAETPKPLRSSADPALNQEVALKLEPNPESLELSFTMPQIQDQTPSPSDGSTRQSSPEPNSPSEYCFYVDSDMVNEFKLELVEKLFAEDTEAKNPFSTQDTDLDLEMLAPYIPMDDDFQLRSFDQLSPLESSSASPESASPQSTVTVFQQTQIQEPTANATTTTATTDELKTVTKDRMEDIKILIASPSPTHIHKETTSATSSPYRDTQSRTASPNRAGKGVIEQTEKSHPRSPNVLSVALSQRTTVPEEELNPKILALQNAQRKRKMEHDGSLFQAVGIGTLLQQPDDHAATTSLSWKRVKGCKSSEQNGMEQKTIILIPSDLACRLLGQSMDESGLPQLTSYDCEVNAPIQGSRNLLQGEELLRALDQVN

Structure (SMILES)	IC50 ([1]; mean of runs)	IC50 ([1]; run 1) [µM]	IC50 ([1]; run 2) [µM]	IC50 ([2]; HIF-2a PANC, mean of runs)	IC50 ([2]; HIF-2a PANC, run 1) [µM]	IC50 ([2]; HIF-2a PANC, run 2) [µM]	IC50 ([2]; HIF-2a, mean of runs)	IC50 ([2]; HIF-2a, run 1) [µM]	IC50 ([2]; HIF-2a, run 2) [µM]
CCNC(=O)NC(=O)COC(=O)CCCSc1nc2ccccc2s1	17.9 µM	28.3	7.51	12.1 µM	10.8	13.4	5.05 µM	5.08	5.02
Cc1csc(NC(=O)c2cn3ccccc3n2)n1	inactive	11.9	12.5	17.5 µM	20.3	14.8	7.98 µM	7.58	8.38
O=C(Nc1ccc(NC(=O)c2ccco2)cc1)c1ccc2c(c1)OCCO2		> 99	86	11.2 µM	10.1	12.4	7.76 µM	8.03	7.48
COc1ccc(-c2cnc3c(NC=O)cc(-c4cccc(NS(C)(=O)=O)c4)cn23)cc1OC	inactive	30.3	24.8	4.5 µM	3.94	5.05	inactive	13	10.8
Nc1ccc(-c2nnn(CC(=O)N3CCCCC3)n2)cc1		15.7	> 99		> 99	33.3	inactive	18.3	17
Cc1nc2cc(-c3ccc(Cl)cc3)nn2c(C)c1CCC(=O)NCc1ccco1	inactive	3.16	2.84	0.787 µM	0.773	0.801	1.43 µM	1.43	1.44
NC(=O)COC(=O)CCCSc1nc2ccccc2s1	inactive	5.5	12.1		> 99	81.1	8.53 µM	8.5	8.56
O=C(O)c1cccc(CSc2nnc(-c3ccc(Cl)cc3)o2)c1		> 99	> 99	2.81 µM	3.03	2.6	1.97 µM	1.87	2.07
O=C(Nc1ccccc1)c1nnsc1S(=O)(=O)c1ccc(Cl)cc1	28.6 µM	27	30.2	inactive	44.3	80.5	7.71 µM	7.38	8.04
NNC(=O)c1cccc(COc2ccc3c(c2)CCC3)c1		> 99	> 99	> 99 µM (inactive)	> 99	> 99	< 30 µM (inactive)	< 30	< 30
Cc1ccc(C(=O)c2cccc(N)c2)cc1C	4.05 µM	5.07	3.03	inactive	3.29	6.42	0.864 µM	0.858	0.87
Cc1ccc(/C=N/Nc2cccc(C(=O)O)c2)s1	> 99 µM (inactive)	> 99	> 99		> 99	> 99		< 30	> 99
O=C(OCC(F)(F)F)c1cccc(COc2ccc3ccccc3c2)c1		> 99	> 99		> 99	< 30	2.86 µM	2.92	2.79
CCOC(=O)CNC(=O)CSc1nnc(NC(=O)c2ccc(C)cc2)s1		> 99	> 99	inactive	63.2	25.5	9.66 µM	11.8	7.56
CCOC(=O)c1cccc(COC(=O)c2cccc(-c3nnc(-c4ccccc4)o3)c2)c1		> 99	> 99	> 99 µM (inactive)	> 99	> 99	inactive	13.2	16.5
Cc1nn(-c2ccccc2Cl)c(Cl)c1/C=N/Nc1cccc(C(=O)O)c1		> 99	> 99	> 99 µM (inactive)	> 99	> 99	inactive	23.5	24.2
O=C(O)c1ccc(N/N=C/c2ccc(C(F)(F)F)cc2)cc1	inactive	22.5	21.7	inactive	75.9	8.53	9.84 µM	9.59	10.1
CN(C)S(=O)(=O)c1cccc(NC(=O)CSc2cccc3cccnc23)c1	34.4 µM	31.1	37.7	> 99 µM (inactive)	> 99	> 99	5.4 µM	5.2	5.6

Structure (SMILES)	IC50 ([1]; mean of runs)	IC50 ([1]; run 1) [µM]	IC50 ([1]; run 2) [µM]	IC50 ([2]; HIF-2a PANC, mean of runs)	IC50 ([2]; HIF-2a PANC, run 1) [µM]	IC50 ([2]; HIF-2a PANC, run 2) [µM]	IC50 ([2]; HIF-2a, mean of runs)	IC50 ([2]; HIF-2a, run 1) [µM]	IC50 ([2]; HIF-2a, run 2) [µM]
CC(=O)Nc1ccc(NC(=O)c2oc3cc(C)c(C)cc3c2C)cc1	inactive	2.91	1.65		> 99	16.5	1.64 µM	1.62	1.67
Cc1c(CCC(=O)N2CCC[C@H]2C(=O)O)c(=O)oc2c(C)c3oc4c(c3cc12)CCCC4	44.7 µM	72.4	17	1.72 µM	1.8	1.64	4.13 µM	4.63	3.63
Cn1c(/C=C/c2ccc(Cl)cc2)c([N+](=O)[O-])c(=O)n(C)c1=O	inactive	26	24.3	34.3 µM	29.4	39.1	inactive	12.5	11.9
O=C(O)c1cccc(C(=O)Nc2cccc(NC(=O)C3CCCO3)c2)c1 (configuration not stated)		> 99	> 99	> 99 µM (inactive)	> 99	> 99	inactive	30.8	26.9
COc1ccc(OCc2cccc(C(=O)NN)c2)cc1		> 99	> 99	> 99 µM (inactive)	> 99	> 99	7.89 µM	7.68	8.1
CCOC(=O)Cc1csc(NC(=S)NC(=O)c2ccc([N+](=O)[O-])cc2)n1	51 µM	55.3	46.8	inactive	35.8	34.5	5.93 µM	5.83	6.03
COC(=O)Cc1ccc(NC(=O)c2ccc(C(C)(C)C)cc2)cc1	< 10 µM	< 10	< 10	< 1 µM (inactive)	< 1	< 3	0.243 µM	0.246	0.241
CCOc1cc(/C=N/Nc2cccc(C(=O)O)c2)ccc1OC(=O)c1ccccc1		> 99	> 99		> 99	30.1	4.22 µM	4.44	4
O=S(=O)(Nc1cccc2cccnc12)c1ccccc1		> 99	> 99	> 99 µM (inactive)	> 99	> 99	3.37 µM	3.54	3.2
COc1ccc(OCc2cccc(C(=O)Nn3cc([N+](=O)[O-])cn3)c2)cc1		32.1	< 30		< 30	13.4	inactive	11.3	9.04
Cc1cc(NC(=O)c2ccccc2)c(Cl)cc1N	11.5 µM	10	12.9	inactive	10.1	19.5	2.75 µM	2.56	2.94
COc1cccc(C(=O)C(C#N)=C(SC)SC)c1	18.2 µM	23.4	13.1	inactive	47.8	47.4	5.75 µM	5.91	5.59
COc1ccc(C(=O)/C=C/C(=O)N(CC(=O)NCCC(C)C)Cc2cccs2)c(O)c1	12.8 µM	9.47	16		> 99	63.8	3.88 µM	4.21	3.55
CCN(CC)CCCC(C)n1c2nc(=O)[nH]c(=O)c-2nc2cc(Cl)ccc21 (configuration not stated)	inactive	18.1	15.8	3.53 µM	2.56	4.5	9.02 µM	8.43	9.61
CCOC(=O)Cn1cc(/C=C/[N+](=O)[O-])c2ccccc21	inactive	17.7	25	> 99 µM (inactive)	> 99	> 99	inactive	13.5	13.2
COc1cc(/C=N/O)ccc1OCc1ccc(C(=O)O)cc1		> 99	> 99	> 99 µM (inactive)	> 99	> 99	4.29 µM	5.58	3
COC(=O)COc1ccc(-c2nccc(-c3ccccn3)n2)cc1	inactive	0.274	0.637	2.88 µM	3.28	2.48	1.07 µM	1.04	1.11
